Patent US20130060013A1, “Compounds useful for treating neurodegenerative disorders” (SATORI PHARMACEUTICALS, INC., priority 2011, published 2013)

Key:
Type in all cases: cell-based
Conditions in all cases: Homo sapiens, compound 5 hours at 37° C., 1% DMSO, percent vehicle fit to 4 parameter curve
[1] = tested on: Aβ-40; experiment: Aβ-40 level in conditioned media of 2B7 cells (MSD 3-PLEX ELISA)
Experimental: (§1) Assays were conducted to determine the ability of a Compound of Formula I to modulate […], and Aβ-38.
Human (6E10) Ab 3-PLEX elisa kits were purchased from Meso Scale Discovery Labs, 9328 Gaither Road, Gaithersburg, Md. 20877 (Catalog Number K15148E-3). Plates with capture antibodies were blocked for 1-2 hours at room temperature with 150 μL of the manufactures blocking reagent.
(§2) Cultured 2B7 cells in 96 well plate with 250 uL of media per well until confluent;
(§3) Prepared serial dilutions of compounds in DMSO at 100× the final desired concentration;
(§4) Washed wells with 2B7 cells 1× with 250 uL of media;
(§5) Diluted DMSO stocks 1:100 into media:
(§6) Added 250 μL of media containing compounds (1% DMSO) to wells with 2B7 cells for 5 hours at 37° C.
(§7) Diluted conditioned media: 1 part media with 1% DMSO and 1 part blocking buffer;
(§8) 150 μL of the 250 μL of conditioned media were used.
(§9) Standard Curve Sample Prep:
(§10) Prepared per manufacturer's protocol (see above)
(§11) Seven point standard curve samples were prepared that contained Aβ-42, Aβ-40, and Aβ-38. The highest concentration of Aβ-42 and Aβ-38 was 3,000 pg/mL and the highest concentration of Aβ-40 was 10,000 pg/mL. Subsequent serial dilutions were 1:3 and the final composition of each sample was 1 part blocking buffer and 1 part cell medium containing 1% DMSO.
(§12) Overnight Sample Incubation:
(§13) Blocked plates are washed 5× with MSD wash buffer with a plate washer
(§14) 25 uL of detection antibody and blocker G reagent in MSD blocking solution is added
(§15) 25 uL of samples (1 part conditioned media containing 1% DMSO and 1 part MSD blocking buffer) are then added.
(§16) plates are incubated overnight at 4 degrees C. or 2 hours at room temp
(§17) Wash wells 5× with MSD wash buffer
(§18) Added 150 μL 2×MSD read buffer
(§19) A-Beta peptide levels for each peptide are calculated from the standard curve using the MSD software provided with the MSD 2400 Imager. Percent vehicle values for each compound dosage were then calculated and fit to a 4 parameter curve generating IC50 values.

[2] = tested on: Aβ-42; experiment: Aβ-42 level in conditioned media of 2B7 cells (MSD 3-PLEX ELISA)
Experimental: as §1
(§20) Plates with capture antibodies were blocked for 1-2 hours at room temperature with 150 μL of the manufactures blocking reagent.
as §2, §3, §4, §5, §6, §7, §8, §9, §10, §11, §12, §13, §14, §15, §16, §17, §18, §19

[3] = tested on: Aβ-38; experiment: Aβ-38 level in conditioned media of 2B7 cells (MSD 3-PLEX ELISA)
Experimental: as §1, §20, §2, §3, §4, §5, §6, §7, §8, §9, §10, §11, §12, §13, §14, §15, §16, §17, §18, §19

SMILES | IC50 [1] | IC50 [2] | IC50 [3]
CCO[C@@H]([C@H]1C[C@@H](C)[C@H]2[C@H](O1)[C@H](O)[C@@]1(C)[C@@H]3CC[C@H]4C(C)(C)[C@@H](O[C@H]5CN(C(=O)CNS(=O)(=O)C(F)(F)F)CCO5)CCC45C[C@@]35CC[C@]21C)C(C)(C)O (stereo partly drawn) | 1000 to 10000 nM | < 1000 nM | < 1000 nM
CCO[C@@H]([C@H]1C[C@@H](C)[C@H]2[C@H](O1)[C@H](O)[C@@]1(C)[C@@H]3CC[C@H]4C(C)(C)[C@@H](O[C@H]5CN(C6(C)COC6)CCO5)CCC45C[C@@]35CC[C@]21C)C(C)(C)O (stereo partly drawn) | 1000 to 10000 nM | < 1000 nM | < 1000 nM
CO[C@@H]([C@H]1C[C@@H](C)[C@H]2[C@H](O1)[C@H](O)[C@@]1(C)[C@@H]3CC[C@H]4C(C)(C)[C@@H](O[C@H]5CN(C6CNC6)CCO5)CCC45C[C@@]35CC[C@]21C)C(C)(C)O (stereo partly drawn) | 1000 to 10000 nM | < 1000 nM | < 1000 nM
CO[C@@H]([C@H]1C[C@@H](C)[C@H]2[C@H](O1)[C@H](O)[C@@]1(C)[C@@H]3CC[C@H]4C(C)(C)[C@@H](OC5CN(C6CN(C)C6)CCO5)CCC45C[C@@]35CC[C@]21C)C(C)(C)O (stereo partly drawn) | 1000 to 10000 nM | < 1000 nM | < 1000 nM
CO[C@@H]([C@H]1C[C@@H](C)[C@H]2[C@H](O1)[C@H](O)[C@@]1(C)[C@@H]3CC[C@H]4C(C)(C)[C@@H](OC5CN(C6CCN(C)C6=O)CCO5)CCC45C[C@@]35CC[C@]21C)C(C)(C)O (stereo partly drawn) | > 10000 nM | < 1000 nM | < 1000 nM
CCO[C@@H]([C@H]1C[C@@H](C)[C@H]2[C@H](O1)[C@H](O)[C@@]1(C)[C@@H]3CC[C@H]4C(C)(C)[C@@H](O[C@H]5CN(CC(=O)N6CCC6)CCO5)CCC45C[C@@]35CC[C@]21C)C(C)(C)O (stereo partly drawn) | 1000 to 10000 nM | < 1000 nM | < 1000 nM
CCO[C@@H]([C@H]1C[C@@H](C)[C@H]2[C@H](O1)[C@H](O)[C@@]1(C)[C@@H]3CC[C@H]4C(C)(C)[C@@H](O[C@H]5CN([C@@H](C)C(=O)N6CCC6)CCO5)CCC45C[C@@]35CC[C@]21C)C(C)(C)O (stereo partly drawn) | > 10000 nM | < 1000 nM | 1000 to 10000 nM
CCO[C@@H]([C@H]1C[C@@H](C)[C@H]2[C@H](O1)[C@H](O)[C@@]1(C)[C@@H]3CC[C@H]4C(C)(C)[C@@H](O[C@H]5CN(CC(=O)N(C)C)CCO5)CCC45C[C@@]35CC[C@]21C)C(C)(C)O (stereo partly drawn) | 1000 to 10000 nM | < 1000 nM | < 1000 nM
CCO[C@@H]([C@H]1C[C@@H](C)[C@H]2[C@H](O1)[C@H](O)[C@@]1(C)[C@@H]3CC[C@H]4C(C)(C)[C@@H](OC(=O)C5CCN5C)CCC45C[C@@]35CC[C@]21C)C(C)(C)O (stereo partly drawn) | > 10000 nM | < 1000 nM | 1000 to 10000 nM
CCO[C@@H]([C@H]1C[C@@H](C)[C@H]2[C@H](O1)[C@H](O)[C@@]1(C)[C@@H]3CC[C@H]4C(C)(C)[C@@H](O[C@H]5CN(CC6CN(C(C)=O)C6)CCO5)CCC45C[C@@]35CC[C@]21C)C(C)(C)O (stereo partly drawn) | 1000 to 10000 nM | < 1000 nM | 1000 to 10000 nM
CCO[C@@H]([C@H]1C[C@@H](C)[C@H]2[C@H](O1)[C@H](O)[C@@]1(C)[C@@H]3CC[C@H]4C(C)(C)[C@@H](OC(=O)[C@H]5COCCN5)CCC45C[C@@]35CC[C@]21C)C(C)(C)O (stereo partly drawn) | 1000 to 10000 nM | < 1000 nM | < 1000 nM
CCO[C@@H]([C@H]1C[C@@H](C)[C@H]2[C@H](O1)[C@H](O)[C@@]1(C)[C@@H]3CC[C@H]4C(C)(C)[C@@H](OC(=O)[C@@H]5COCCN5)CCC45C[C@@]35CC[C@]21C)C(C)(C)O (stereo partly drawn) | 1000 to 10000 nM | < 1000 nM | < 1000 nM
CCO[C@@H]([C@H]1C[C@@H](C)[C@H]2[C@H](O1)[C@H](O)[C@@]1(C)[C@@H]3CC[C@H]4C(C)(C)[C@@H](OC(=O)c5cccnc5)CCC45C[C@@]35CC[C@]21C)C(C)(C)O (stereo partly drawn) | > 10000 nM | < 1000 nM | < 1000 nM
CCO[C@@H]([C@H]1C[C@@H](C)[C@H]2[C@H](O1)[C@H](O)[C@@]1(C)[C@@H]3CC[C@H]4C(C)(C)[C@@H](OC(=O)[C@H]5CNCCO5)CCC45C[C@@]35CC[C@]21C)C(C)(C)O (stereo partly drawn) | 1000 to 10000 nM | < 1000 nM | < 1000 nM
CCO[C@@H]([C@H]1C[C@@H](C)[C@H]2[C@H](O1)[C@H](O)[C@@]1(C)[C@@H]3CC[C@H]4C(C)(C)[C@@H](OC(=O)[C@H]5COCCN5CCOC)CCC45C[C@@]35CC[C@]21C)C(C)(C)O (stereo partly drawn) | 1000 to 10000 nM | < 1000 nM | < 1000 nM
CCO[C@@H]([C@H]1C[C@@H](C)[C@H]2[C@H](O1)[C@H](O)[C@@]1(C)[C@@H]3CC[C@H]4C(C)(C)[C@@H](OC(=O)[C@H]5CCCN5)CCC45C[C@@]35CC[C@]21C)C(C)(C)O (stereo partly drawn) | 1000 to 10000 nM | < 1000 nM | < 1000 nM
CCO[C@@H]([C@H]1C[C@@H](C)[C@H]2[C@H](O1)[C@H](O)[C@@]1(C)[C@@H]3CC[C@H]4C(C)(C)[C@@H](OC(=O)C5CN(CCOC)C5)CCC45C[C@@]35CC[C@]21C)C(C)(C)O (stereo partly drawn) | 1000 to 10000 nM | < 1000 nM | < 1000 nM
CCO[C@@H]([C@H]1C[C@@H](C)[C@H]2[C@H](O1)[C@H](O)[C@@]1(C)[C@@H]3CC[C@H]4C(C)(C)[C@@H](OC(=O)[C@H]5CCCN5C)CCC45C[C@@]35CC[C@]21C)C(C)(C)O (stereo partly drawn) | 1000 to 10000 nM | < 1000 nM | < 1000 nM
CCO[C@@H]([C@H]1C[C@@H](C)[C@H]2[C@H](O1)[C@H](O)[C@@]1(C)[C@@H]3CC[C@H]4C(C)(C)[C@@H](OC(=O)[C@@H]5COCCN5C(C)C)CCC45C[C@@]35CC[C@]21C)C(C)(C)O (stereo partly drawn) | > 10000 nM | < 1000 nM | 1000 to 10000 nM
CCO[C@@H]([C@H]1C[C@@H](C)[C@H]2[C@H](O1)[C@H](O)[C@@]1(C)[C@@H]3CC[C@H]4C(C)(C)[C@@H](OC(=O)[C@@H]5C[C@@H](O)CN5)CCC45C[C@@]35CC[C@]21C)C(C)(C)O (stereo partly drawn) | 1000 to 10000 nM | < 1000 nM | < 1000 nM
CCO[C@@H]([C@H]1C[C@@H](C)[C@H]2[C@H](O1)[C@H](O)[C@@]1(C)[C@@H]3CC[C@H]4C(C)(C)[C@@H](OC(=O)[C@@H]5C[C@@H](O)CN5C)CCC45C[C@@]35CC[C@]21C)C(C)(C)O (stereo partly drawn) | 1000 to 10000 nM | < 1000 nM | < 1000 nM
CCO[C@@H]([C@H]1C[C@@H](C)[C@H]2[C@H](O1)[C@H](O)[C@@]1(C)[C@@H]3CC[C@H]4C(C)(C)[C@@H](O[C@H]5CN(CCO)CCO5)CCC45C[C@@]35CC[C@]21C)C(C)(C)O (stereo partly drawn) | 1000 to 10000 nM | < 1000 nM | < 1000 nM
CCO[C@@H]([C@H]1C[C@@H](C)[C@H]2[C@H](O1)[C@H](O)[C@@]1(C)[C@@H]3CC[C@H]4C(C)(C)[C@@H](OC(=O)C5CNC5)CCC45C[C@@]35CC[C@]21C)C(C)(C)O (stereo partly drawn) | 1000 to 10000 nM | < 1000 nM | < 1000 nM
CCO[C@@H]([C@H]1C[C@@H](C)[C@H]2[C@H](O1)[C@H](O)[C@@]1(C)[C@@H]3CC[C@H]4C(C)(C)C(O[C@H]5CN(CCNC(=O)CCOCCOCCNC(=O)CCCCC6SC[C@@H]7NC(=O)N[C@H]67)CCO5)CC[C@@]45CC35CC[C@]21C)C(C)(C)O (stereo partly drawn) | > 10000 nM | 1000 to 10000 nM | 1000 to 10000 nM
CCO[C@@H]([C@H]1C[C@@H](C)[C@H]2[C@H](O1)[C@H](O)[C@@]1(C)[C@@H]3CC[C@H]4C(C)(C)C(O[C@H]5CN(CCCNCCCOCCOCCOCCCNC(=O)CCCCC6SC[C@@H]7NC(=O)N[C@H]67)CCO5)CC[C@@]45CC35CC[C@]21C)C(C)(C)O (stereo partly drawn) | 1000 to 10000 nM | < 1000 nM | < 1000 nM
CCO[C@@H]([C@H]1C[C@@H](C)[C@H]2[C@H](O1)[C@H](O)[C@@]1(C)[C@@H]3CC[C@H]4C(C)(C)C(O[C@H]5CN(CCNC(=O)CCC6(C)N=N6)CCO5)CC[C@@]45CC35CC[C@]21C)C(C)(C)O (stereo partly drawn) | > 10000 nM | < 1000 nM | < 1000 nM
CCO[C@@H]([C@H]1C[C@@H](C)[C@H]2[C@H](O1)[C@H](O)[C@@]1(C)[C@@H]3CC[C@H]4C(C)(C)C(O[C@H]5CN(CCNCCCOCCOCCOCCCNC(=O)CCCCC6SC[C@@H]7NC(=O)N[C@H]67)CCO5)CC[C@@]45CC35CC[C@]21C)C(C)(C)O (stereo partly drawn) | 1000 to 10000 nM | < 1000 nM | < 1000 nM
